The numbers were not newly measured in patent US9744133B2, “Enhanced stability of novel liquid compositions” (Pfizer Inc., priority 2013, dated 2017), which cites them from elsewhere.

The conditions of the data set: 25° C.

Regarding `COc1ccccc1OCC(O)CO` (stereo not shown) [Guaifenesin], the Solubility in water result is “approximately 4 % by weight”.
